Measured values from US20050130134A1, “Means and methods for monitoring non-nucleoside reverse transcriptase inhibitor antiretroviral therapy and guiding therapeutic decisions in the treatment HIV-AIDS” (ViroLogic, Inc., priority 2000, published 2005).
Entries after “also recorded” stand apart in the source; their conditions may differ.

Experiments:
[1] = system: HIV-1 reverse transcriptase Y188H (Y188H-RTV); conditions: >1 loss of susceptibility
Method: (§1) Resistance tests were carried out with resistance test vectors using two host cell types. Resistance test vector viral particles were produced by a first host cell (the resistance test vector host cell) that was prepared by transfecting a packaging host cell with the resistance test vector and the packaging expression vector. The resistance test vector viral particles were then used to infect a second host cell (the target host cell) in which the expression of the indicator gene is measured.
(§2) The resistance test vectors containing a functional luciferase gene cassette were constructed and host cells were transfected with the resistance test vector DNA. The resistant test vectors contained patient-derived reverse transcriptase and protease sequences that were either susceptible or resistant to the antiretroviral agents, such as nucleoside reverse transcriptase inhibitors, non-nucleoside reverse transcriptase inhibitors and protease inhibitors. […] The IC50 values were determined by plotting percent drug inhibition vs. log10 drug concentration.
(§3) Host cells were seeded in 10-cm-diameter dishes and were transfected several days after plating with resistance test vector plasmid DNA and the envelope expression vector. […] HIV capsid protein (p24) levels in the harvested cell culture media were determined by an EIA method as described by the manufacturer (SIAC; Frederick, Md.). […]

[2] = system: HIV reverse transcriptase K103N + Y181C double mutant; conditions: K103N + Y181C double mutant compared to single mutants, FIG. 5
Method: as §1
(§4) The resistance test vectors containing a functional luciferase gene cassette were constructed and host cells were transfected with the resistance test vector DNA. The resistant test vectors contained patient-derived reverse transcriptase and protease sequences that were either susceptible or resistant to the antiretroviral agents, such as nucleoside reverse transcriptase inhibitors, non-nucleoside reverse transcriptase inhibitors and protease inhibitors. The resistance test vector viral particles produced by transfecting the resistance test vector DNA into host cells, either in the presence or absence of protease inhibitors, were used to infect target host cells grown either in the absence of NRTI or NNRTI or in the presence of increasing concentrations of the drug. The amount of luciferase activity produced in infected target host cells in the presence of drug was compared to the amount of luciferase produced in infected target host cells in the absence of drug. Drug resistance was measured as the amount of drug required to inhibit by 50% the luciferase activity detected in the absence of drug (inhibitory concentration 50%, IC50). The IC50 values were determined by plotting percent drug inhibition vs. log10 drug concentration.
(§5) Host cells were seeded in 10-cm-diameter dishes and were transfected several days after plating with resistance test vector plasmid DNA and the envelope expression vector. Transfections were performed using a calcium-phosphate precipitation procedure. The cell culture media containing the DNA precipitate was replaced with fresh medium, from one to 24 hours, after transfection. Cell culture media containing resistance test vector viral particles was harvested one to four days after transfection and was passed through a […] filter before being stored at −80° C. HIV capsid protein (p24) levels in the harvested cell culture media were determined by an EIA method as described by the manufacturer (SIAC; Frederick, Md.). Before infection, target cells (293 and 293/T) were plated in cell culture media. Control infections were performed using cell culture media from mock transfections (no DNA) or transfections containing the resistance test vector plasmid DNA without the envelope expression plasmid. One to three or more days after infection the media was removed and cell lysis buffer (Promega) was added to each well. […] The inhibitory effect of the drug was determined using the following equation: % luciferase inhibition=1-(RLUluc[drug]÷RLUluc)×100 where RLUluc [drug] is the relative light unit of luciferase activity in infected cells in the presence of drug and RLUluc is the Relative Light Unit of luciferase activity in infected cells in the absence of drug. IC50 values were obtained from the sigmoidal curves that were generated from the data by plotting the percent inhibition of luciferase activity vs. the log10 drug concentration.

[3] = system: patient 487 virus (RT M184V, K103N); conditions: FIG. 4
Method: as §1, §4, §5

[4] = system: Tyr181Cys (Y181C) mutation of HIV RT; conditions: cited from earlier work
[5] = system: HIV-1 reverse transcriptase K103N + Y188L (K103N-Y188L-RTV); assay: Phenotypic susceptibility assay, site directed mutant K103N-Y188L-RTV; format: cell-based; conditions: >1 loss of susceptibility
Method: as §1, §2, §3

[6] = system: RTV-964 patient virus (RT Y181I); assay: Phenotypic susceptibility assay, RTV-964 (patient 98-964); format: cell-based, HIV-1
Method: (§6) Transfections were performed using a calcium-phosphate precipitation procedure. […] Cell lysates were assayed for luciferase activity (FIG. 3). […] The drug inhibition curves are shown in (FIG. 3).

[7] = system: HIV-1 reverse transcriptase L100I + K103N (L100I-K103N-RTV); assay: Phenotypic susceptibility assay, site directed mutant L100I-K103N-RTV; format: cell-based; conditions: >1 loss of susceptibility
Method: as §1, §2, §3

[8] = biological target: RT with P236L substitution (Human immunodeficiency virus type 1 group M subtype B, UniProt P04585, P823L); conditions: cited from earlier work; for previously reported effect of the P236L mutation: Dueweke et al. 1993
[9] = system: RTV-268 patient virus (RT P236L with M41L, D67N, M184V, L210W, T215Y, K219Q); assay: Phenotypic susceptibility assay, RTV-268 (patient 97-268); format: cell-based, HIV-1; conditions: RTV-268 patient virus compared to reference virus
Method: as §1, §4, §5
A resistance test vector was constructed as described in Example 1 from a patient sample designated 97-268. […] Isolation of viral RNA and RT/PCR was used to generate a patient derived segment that comprised viral sequences coding for all of PR and amino acids 1-313 of RT. The patient derived segment was inserted into a indicator gene viral vector to generate a resistance test vector designated RTV-268.

[10] = system: RTV-1057 patient virus (RT A98G, Y181C); assay: Phenotypic susceptibility assay, RTV-1057 (patient 98-1057); format: cell-based, HIV-1
Method: as §6

[11] = system: RTV-757 patient virus (RT V106A, V108I, V189L); assay: Phenotypic susceptibility assay, RTV-757 (patient 98-757); format: cell-based, HIV-1; conditions: RTV-757 patient virus (same patient as RTV-1033, later time point)
Method: as §6

[12] = system: HIV-1 reverse transcriptase L100I + K103N + Y188L (L100I-K103N-Y188L-RTV); assay: Phenotypic susceptibility assay, site directed mutant L100I-K103N-Y188L-RTV; format: cell-based; conditions: >1 loss of susceptibility
Method: as §1, §2, §3

[13] = system: RTV-1058 clone 5 (RT L100I, K103N); assay: Phenotypic susceptibility assay, RTV-1058 clone 5; format: cell-based, HIV-1
Method: as §6

[14] = system: RTV-300 patient virus (RT K32N, M184V, Y188L); assay: Phenotypic susceptibility assay, RTV-300 (patient 97-300); format: cell-based, HIV-1
Method: as §6
This patient had been previously treated with d4T and 3TC (NRTIs), indinavir (a PR1) and efavirenz (an NNRTI).

Structure (SMILES): Cc1ccnc2c1NC(=O)c1cccnc1N2C1CC1 [nevirapine]
- fold change in susceptibility compared to wild type control RTV [1]: 3.5 fold
- resistance profile [2]: further increase in resistance
- resistance profile [3]: increased resistance
- reduction in sensitivity [4]: 100 fold
- fold change in susceptibility compared to wild type control RTV [5]: greater than 800 fold
- decrease in susceptibility [6]: 750 fold
- fold change in susceptibility compared to wild type control RTV [7]: 70 fold
- reduction of IC50 ([8]; P236L substitution): 7 to 10 fold
- previously reported effect of the P236L mutation [8]: nevirapine hypersensitivity
- change in susceptibility / resistance [9]: no change; also recorded: the same as wild type
- decrease in susceptibility [10]: 610 fold
- decrease in susceptibility [11]: greater than 800 fold
- fold change in susceptibility compared to wild type control RTV [12]: greater than 800 fold
- loss of susceptibility [13]: 120 fold
- decrease in susceptibility [14]: greater than 800 fold

Structure (SMILES): CC(C)Nc1cccnc1N1CCN(C(=O)c2cc3cc(NS(C)(=O)=O)ccc3[nH]2)CC1 [delavirdine]
- resistance profile [2]: further increase in resistance
- resistance profile [3]: increased resistance
- previously reported effect of the P236L mutation [8]: delavirdine resistance
- decrease in susceptibility [10]: 35 fold
- decrease in susceptibility [11]: 10 fold
- loss of susceptibility [13]: 250 fold
- decrease in susceptibility [14]: 25 fold
